PubChem BioAssay (NCI)
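Assay format: 96-well plates, 48-hour exposure. At the TGI there is no net growth.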

How the values were obtained:
Assay in all cases: NCI anticancer screen, dose series, 48 h
OVCAR-3 ovarian = system: OVCAR-3 ovarian
NCI-H460 lung = system: NCI-H460 lung
HT29 colon = system: HT29 colon
CCRF-CEM leukemia = system: CCRF-CEM leukemia
HCT-15 colon = system: HCT-15 colon
OVCAR-4 ovarian = system: OVCAR-4 ovarian
U251 CNS = system: U251 CNS
SF-268 CNS = system: SF-268 CNS
M19-MEL melanoma = system: M19-MEL melanoma
UO-31 renal = system: UO-31 renal
DMS 273 small cell lung = system: DMS 273 small cell lung
MOLT-4 leukemia = system: MOLT-4 leukemia
UACC-257 melanoma = system: UACC-257 melanoma
K-562 leukemia = system: K-562 leukemia
MALME-3M melanoma = system: MALME-3M melanoma
UACC-62 melanoma = system: UACC-62 melanoma
KM12 colon = system: KM12 colon
TK-10 renal = system: TK-10 renal
SK-MEL-28 melanoma = system: SK-MEL-28 melanoma
SN12C renal = system: SN12C renal
NCI-H522 lung = system: NCI-H522 lung
HL-60(TB) leukemia = system: HL-60(TB) leukemia
OVCAR-8 ovarian = system: OVCAR-8 ovarian
SF-295 CNS = system: SF-295 CNS
A549 NSCLC = system: A549 NSCLC
HCT-116 colon = system: HCT-116 colon
DLD-1 colon = system: DLD-1 colon
DMS 114 small cell lung = system: DMS 114 small cell lung
SK-MEL-5 melanoma = system: SK-MEL-5 melanoma
SNB-78 CNS = system: SNB-78 CNS
LXFL 529 NSCLC = system: LXFL 529 NSCLC
SF-539 CNS = system: SF-539 CNS
NCI-H23 lung = system: NCI-H23 lung
LOX IMVI melanoma = system: LOX IMVI melanoma
SK-MEL-2 melanoma = system: SK-MEL-2 melanoma
SK-OV-3 ovarian = system: SK-OV-3 ovarian
NCI-H226 lung = system: NCI-H226 lung
XF 498 CNS = system: XF 498 CNS
ACHN renal = system: ACHN renal
RXF 393 renal = system: RXF 393 renal
SW-620 colon = system: SW-620 colon
SNB-75 CNS = system: SNB-75 CNS
A498 renal = system: A498 renal
SNB-19 CNS = system: SNB-19 CNS
786-0 renal = system: 786-0 renal
M14 melanoma = system: M14 melanoma
SR leukemia = system: SR leukemia
KM20L2 colon = system: KM20L2 colon
RPMI-8226 leukemia = system: RPMI-8226 leukemia
HCC-2998 colon = system: HCC-2998 colon
EKVX NSCLC = system: EKVX NSCLC
COLO 205 colon = system: COLO 205 colon
HOP-62 NSCLC = system: HOP-62 NSCLC

## NCc1ccccc1C1CSCSC1
OVCAR-3 ovarian
  TGI: > 100 µM
NCI-H460 lung
  TGI: > 100 µM
HT29 colon
  TGI: > 100 µM
CCRF-CEM leukemia
  TGI: > 100 µM
HCT-15 colon
  TGI: > 100 µM
OVCAR-4 ovarian
  TGI: > 100 µM
U251 CNS
  TGI: > 100 µM
SF-268 CNS
  TGI: > 100 µM
M19-MEL melanoma
  TGI: > 100 µM
UO-31 renal
  TGI: > 100 µM
DMS 273 small cell lung
  TGI: > 100 µM
MOLT-4 leukemia
  TGI: > 100 µM
UACC-257 melanoma
  TGI: > 100 µM
K-562 leukemia
  TGI: > 100 µM
MALME-3M melanoma
  TGI: > 100 µM
UACC-62 melanoma
  TGI: > 100 µM
KM12 colon
  TGI: > 100 µM
TK-10 renal
  TGI: > 100 µM
SK-MEL-28 melanoma
  TGI: > 100 µM
SN12C renal
  TGI: > 100 µM
NCI-H522 lung
  TGI: > 100 µM
HL-60(TB) leukemia
  TGI: > 100 µM
OVCAR-8 ovarian
  TGI: > 100 µM
SF-295 CNS
  TGI: > 100 µM
A549 NSCLC
  TGI: > 100 µM
HCT-116 colon
  TGI: > 100 µM
DLD-1 colon
  TGI: > 100 µM
DMS 114 small cell lung
  TGI: > 100 µM
SK-MEL-5 melanoma
  TGI: > 100 µM
SNB-78 CNS
  TGI: > 100 µM
LXFL 529 NSCLC
  TGI: > 100 µM
SF-539 CNS
  TGI: > 100 µM
NCI-H23 lung
  TGI: > 100 µM
LOX IMVI melanoma
  TGI: > 100 µM
SK-MEL-2 melanoma
  TGI: > 100 µM
SK-OV-3 ovarian
  TGI: > 100 µM
NCI-H226 lung
  TGI: > 100 µM
XF 498 CNS
  TGI: > 100 µM
ACHN renal
  TGI: > 100 µM
RXF 393 renal
  TGI: > 100 µM
SW-620 colon
  TGI: > 100 µM
SNB-75 CNS
  TGI: > 100 µM

## O=c1cc(-c2ccccc2)c2cc3c(=O)ccoc3cc2o1
OVCAR-3 ovarian
  TGI: > 100 µM
NCI-H460 lung
  TGI: > 100 µM
HT29 colon
  TGI: > 100 µM
CCRF-CEM leukemia
  TGI: > 100 µM
HCT-15 colon
  TGI: > 100 µM
OVCAR-4 ovarian
  TGI: > 100 µM
A498 renal
  TGI: 78.7 µM
U251 CNS
  TGI: > 100 µM
SNB-19 CNS
  TGI: > 100 µM
SF-268 CNS
  TGI: > 100 µM
M19-MEL melanoma
  TGI: > 100 µM
UO-31 renal
  TGI: > 100 µM
DMS 273 small cell lung
  TGI: > 100 µM
786-0 renal
  TGI: > 100 µM
MOLT-4 leukemia
  TGI: > 100 µM
M14 melanoma
  TGI: > 100 µM
UACC-257 melanoma
  TGI: > 100 µM
SR leukemia
  TGI: > 100 µM
KM20L2 colon
  TGI: > 100 µM
RPMI-8226 leukemia
  TGI: > 100 µM
K-562 leukemia
  TGI: > 100 µM
HCC-2998 colon
  TGI: > 100 µM
MALME-3M melanoma
  TGI: > 100 µM
EKVX NSCLC
  TGI: > 100 µM
UACC-62 melanoma
  TGI: > 100 µM
TK-10 renal
  TGI: > 100 µM
SK-MEL-28 melanoma
  TGI: > 100 µM
SN12C renal
  TGI: > 100 µM
COLO 205 colon
  TGI: > 100 µM
HL-60(TB) leukemia
  TGI: > 100 µM
OVCAR-8 ovarian
  TGI: > 100 µM
SF-295 CNS
  TGI: > 100 µM
A549 NSCLC
  TGI: > 100 µM
HCT-116 colon
  TGI: > 100 µM
DLD-1 colon
  TGI: > 100 µM
DMS 114 small cell lung
  TGI: > 100 µM
SK-MEL-5 melanoma
  TGI: > 100 µM
SF-539 CNS
  TGI: > 100 µM
NCI-H23 lung
  TGI: > 100 µM
LOX IMVI melanoma
  TGI: > 100 µM
SK-MEL-2 melanoma
  TGI: > 100 µM
HOP-62 NSCLC
  TGI: > 100 µM
NCI-H226 lung
  TGI: > 100 µM
XF 498 CNS
  TGI: > 100 µM
ACHN renal
  TGI: > 100 µM
RXF 393 renal
  TGI: > 100 µM
SW-620 colon
  TGI: > 100 µM
SNB-75 CNS
  TGI: 90.3 µM
